The values below are quoted from earlier work in patent publication US20220315503A1, “METHODS FOR PRODUCING TREATED MANURE” (COMMONWEALTH SCIENTIFIC AND INDUSTRIAL RESEARCH ORGANISATION, priority 2019, published 2022).

SMILES strings stand for the structures. Where two headings read alike, the source gives them in different places. Bounds are passed on as bounds.

Series [1] concerns enteric CH4 emission. Particulars: beef cattle; administered in animal feed.
For series [2], the system named is enteric CH4 emission. Particulars: sheep.
In series [3] the test system is enteric CH4 emission. As to conditions: dairy cattle.
For series [4], the system named is production of CH4 in rumen fluid.
For series [5] the following is noted: initial concentrations 132 to 177 μg/L; 1.5 hours packed-bed detention time.

In the case of `O=[N+]([O-])OCCCO` [3NOP, 3-nitrooxypropanol], the “reduction of CH4 emission” value in the series with enteric CH4 emission [1] is given as 59%. Moreover, the “overall CH4 yield of spiked feces” value in the series with CH4 yield of feces (feces spiked with 200 mg kg^−1 dry matter) is given as “no significant difference”. Besides, the “downstream effect on CH4 emissions of the feces” value in the series on CH4 yield of feces (inhibitor included in animal diets) is listed as “no significant downstream effect”. Besides, the “reduction in CH4 emissions” value is 24% in the series on enteric CH4 emission [2] and “up to 60%” with enteric CH4 emission [3].
Consider `BrC(Br)Br` [bromoform, tribromomethane], for which the “production of CH4 compared to control in rumen fluid” value in series [4] (concentration of 1 μM) and in series [4] (concentrations ≥5 μM) was “inhibit the production of CH4” throughout. In addition, the “reduction (degradation) under anaerobic conditions” value in series [5] is > 99%.
Turning to `ClC(Br)Br` [dibromochloromethane], the “production of CH4 compared to control in rumen fluid” value in series [4] (concentration of 1 μM) and in series [4] (concentrations ≥5 μM) was “inhibit the production of CH4” each time.
